AC35 data for 95 molecules are collected here from PubChem BioAssay AID624404 (Broad Institute, 2012).

The assay concerns D54 LucT luciferase reporter counterscreen, luminescence, 24 h. Kind of assay: luciferase activators in glycosylation-insensitive reporter cells, dose response, counter-screen for N-linked glycosylation inhibitor project, D54 LucT cells, luminescence, cherry pick (AID 624404).

Inconclusive results are not listed. Active and inactive are the calls of the source.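 Rule for the calls: active = luciferase signal rise whose fitted curve crosses a set activity limit at or below the top valid tested dose; inconclusive = flat fit with 30 to 70% rise, or poor fit; inactive = signal falling, flat within 30%, or crossing above top dose.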 Where only a bound is given, the exact number is not on record here.

Consider `COc1ccc(Nc2nc(N)c(C(=O)c3ccc(OC)cc3)s2)cc1`, for which the AC35 was 148 nM. Next, `Cc1ccc2nc(SCC(=O)Nc3ccc4sc(C)nc4c3)c(C#N)cc2c1`: 4.83 nM; `Cc1cccc(C(=O)Oc2ccccc2/C=N/NC(=O)c2ccc(NC(=O)C(C)(C)C)cc2)c1`: 2690 nM; `COc1ccc2c(c1)[C@H]1[C@H](CO2)[C@H](c2ccccc2)[C@]2(C)C(=O)Nc3cc(F)c(F)cc3C(=O)N12`: 469 nM. To `COc1ccc(OC)c(Nc2nc(-c3c(C)nc4ncccn34)cs2)c1` belongs 1100 nM; to `Cc1noc(C)c1COc1cccc(C(=O)OC(C)C(=O)Nc2ccc3c(c2)OCO3)c1` (stereo not given), 1600 nM; to `C[C@@H](NC(=O)c1nc[nH]c1C(=O)N1CCN(c2ccccc2)CC1)c1ccccc1`, 1830 nM. To `COc1ccc(CC(=O)Nc2ccc(-c3ccc4nnc(C)n4n3)cc2)cc1OC` belongs 1800 nM; to `CCOc1cc(C(=O)Nc2ccc(N3CCOCC3)cc2)cc(Br)c1OC`, 3660 nM; to `CCOc1nc(N=C(N)N)nc2c(C)cccc12`, 603 nM. Regarding `CCOc1cc(N2CCOCC2)c(OCC)cc1NC(=O)c1[nH]c(C)c(C(C)=O)c1C`, the AC35 is 10.7 nM. Next, `O=C(/C=C/Sc1ccccc1)c1ccc(Cl)cc1`: 370 nM. Next, `O=C(Nc1ccccc1)N(CCN1CCOCC1)Cc1ccccc1F`: 2370 nM; `Cc1cc(NS(=O)(=O)c2ccc(NC(=O)COc3c(C)cc(Br)cc3C)cc2)no1`: 1660 nM; `C=CCn1c(O)c(/C=C2/C=CC=N2)c(=O)[nH]c1=O`: 14300 nM. Next, `Cc1nnc2c3ccccc3c(-c3cccs3)nn12`: 312 nM. For `Cc1cnc2cc(Cl)c(Cl)cc2n1`, the AC35 was 5410 nM. Next, `CCOC(=O)c1[nH]c(C)c(C(=O)Nc2cc(Cl)ccc2C)c1C`: 2240 nM. Next, `COc1cccc(OCc2nc3ncc(Br)cc3[nH]2)c1`: 2480 nM; `COc1ccc(OC)c(N(CC(=O)Nc2cccc3ccccc23)S(C)(=O)=O)c1`: 2420 nM; `CCOC(=O)c1sc(Nc2nc(C)cc(C)n2)nc1C`: 1070 nM. Regarding `COC(=O)/C=C1\C(=O)N(c2nc3ccccc3s2)C(=S)N1c1ccc(F)cc1`, the AC35 is 14.9 nM. Next, `Nc1nc(CN2CCN(Cc3ccccc3)CC2)nc(Nc2ccc3c(c2)OCCO3)n1`: 251 nM; `Cc1ccc(-c2cc(C(=O)NCC(c3ccccc3)N(C)C)c3ccccc3n2)o1` (stereo not given): 3300 nM. To `CC(=O)NC(c1cccc(F)c1)c1nc(-c2ccccc2C)cs1` (stereo not given) belongs 263 nM; to `COc1ccccc1CCNCc1ccc(OC)c(OCc2ccccc2)c1`, 1170 nM. Next, `Cc1cccc(CCNC(=O)CCCOc2cc(=O)n(C)c3ccccc23)c1`: 321 nM; `COc1ccc(C2=NOC(C(=O)NCc3ccco3)C2)cc1` (stereo not given): 784 nM; `Nc1nc(Nc2ccccc2)sc1C(=O)c1ccccc1`: 272 nM. As to `CCc1ccc(OCC(=O)Nc2ccc(-c3cc4ccccc4oc3=O)c(OC)c2)cc1`, the AC35 was 734 nM. As to `COc1ccc(CNC(=O)c2cccc3c(-c4cccc(C(N)=O)c4)coc23)cc1OC`, the AC35 was 408 nM. Next, `Cc1ccc(CC(=O)NCc2ccc(F)cc2)cc1`: 4270 nM; `COc1cc2c(cc1OC)C(=O)N1[C@H]3c4cc(Cl)ccc4OC[C@@H]3[C@H](c3ccccc3)[C@]1(C)C(=O)N2`: 449 nM. Next, `COc1ccccc1-c1cc(NC=O)c2ncc(-c3cccc(C(=O)N(C)C)c3)n2c1`: 48.3 nM; `CCc1nc2ccc(C(=O)NCCc3c[nH]c4ccccc34)cn2c1N(C=O)CCC(C)C`: 645 nM; `CCOC(=O)[C@H]1[C@H]2COc3ccc(Br)cc3[C@@H]2N2C(=O)c3cc(OC)c(OC)cc3NC(=O)[C@@]12C`: 3990 nM. Next, `COc1cc(C(=O)N/N=C(\C)c2ccc3c(c2)OCO3)cc(OC)c1OC`: 92.4 nM; `CCOC(=O)Nc1nc2ccc(Cn3cccc3)cc2[nH]1`: 115 nM. Turning to `COc1ccccc1N1CCN(c2ccc3c(c2)S(=O)(=O)c2cccc(C(=O)NCC4CC4)c2C3=O)CC1`, the AC35 is 1190 nM.

On to `COc1cc2c(cc1OC)CN(c1ccc(C(F)(F)F)cn1)CC2`, for which the AC35 was 2500 nM.

In the case of `CCOc1ccc2c(c1)OC(c1ccc(OC)cc1)(C(F)(F)F)NC2=O` (stereo not given), the AC35 was 748 nM. To `O=C(NC1CCCCC1)c1ccc([N+](=O)[O-])o1` belongs 1370 nM; to `O=C(NO)c1ccc(OC(F)F)cc1`, 1520 nM. Take `Cn1c(=O)cc(OCCCC(=O)Nc2ccc3c(c2)OCCO3)c2ccccc21`: the AC35 was 353 nM.

Take `CCOC(=O)[C@H]1[C@H]2COc3ccc(OC)cc3[C@@H]2N2C(=O)c3cc(OC)c(OC)cc3NC(=O)[C@@]12C`: the AC35 was 3030 nM. Next, `Cn1c(=O)n(C)c2cc(NC(=O)CCl)ccc21`: 707 nM; `CCOc1ccc(/C=C2\SC(N3CCCCC3)=NC2=O)cc1`: 5570 nM; `CS(=O)(=O)c1cccc(C(=O)Nc2ccc(-c3nc4ccccc4[nH]3)cc2)c1`: 3750 nM. To `Cc1cccc2c(C(=O)N3CCN(c4ccccc4)CC3)cc(-c3ccncc3)nc12` belongs 126 nM; to `COc1ccc(NC(=O)c2cc3c(=O)n(C)c4ccccc4c3n2C)cc1OC`, 4000 nM; to `CC1(C(=O)NCCC(F)(F)F)Cc2c(-c3cccc(C(F)(F)F)c3)ccnc2O1` (stereo not given), > 19500 nM (inactive). Regarding `CC(C)[n+]1ccn(C2=C([O-])c3ccccc3C(=O)/C2=N\S(=O)(=O)c2ccccc2)c1`, the AC35 was 2370 nM. To `O=C(NCCN1C(=O)S/C(=C\c2ccccc2Cl)C1=O)C1=COCCO1` belongs 4980 nM. `CCOC(=O)c1c(C)[nH]c(C(=O)N/N=C/c2ccc(OC)c(OC)c2)c1C`: the AC35 is 526 nM. To `Cc1ccc(C(=O)Nc2ccccc2C(=O)N2CC(C)OC(C)C2)cc1` (stereo not given) belongs 625 nM; to `O=C1Cc2c([nH]c3ccc(Br)cc23)-c2ccccc2N1`, 2.52 nM. Next, `C=CCn1c(O)c(C(CC)=NC(C)c2ccccc2)c(=O)[nH]c1=O` (stereo not given): 1080 nM.

Take `CSc1ccc(/C=N/NC(=O)c2ccccc2Cl)cc1`: the AC35 is 1230 nM. Next, `COc1ccc(NC2=C(C)C(=O)CC2)cc1`: 380 nM. On to `Cn1c(=O)n(C)c2cc(NS(=O)(=O)c3ccc(F)cc3)ccc21`, for which the AC35 is 1240 nM. Next, `CNC(=O)c1cccn(Cc2cccc(C(F)(F)F)c2)c1=O`: 231 nM; `Cc1ccc(NC(=O)c2ncn(CCCNCc3ccccc3)n2)cc1C`: 994 nM; `CC1(C)Cc2c(c(N3CCOCC3)nc3snc(N)c23)CO1`: 1200 nM.

Turning to `Cc1[nH]c2ccccc2c1/C=N/NC(=O)c1cc(-c2ccncc2)nc2ccccc12`, the AC35 is 2060 nM. Next, `COc1ccc2c(c1)[C@H]1[C@H](CO2)[C@H](c2ccccc2)[C@]2(C)C(=O)Nc3cc(OC)c(OC)cc3C(=O)N12`: 20.2 nM; `Cn1nc(-c2ccccc2)c(CSc2ccccc2Cl)c1Cl`: 1120 nM; `O=C(N/N=C/c1cccs1)c1cc(-c2cccc3ccccc23)n[nH]1`: 3530 nM.

As for `CC(=O)Nc1ccc2cc3ccc(NC(C)=O)cc3nc2c1`, the AC35 is 838 nM. Next, `Cc1ccc2c(c1)C(=O)N1[C@H]3c4cc(C)ccc4OC[C@@H]3[C@H](c3ccccc3)[C@]1(C)C(=O)N2`: 499 nM; `Cc1nc(Nc2nc(-c3ccccc3)cc(=O)[nH]2)nc2ccccc12`: 4910 nM; `O=S(=O)([N-]c1nc2ccccc2nc1-n1cc[n+](Cc2ccccc2)c1)c1ccc(Cl)cc1`: 89.8 nM. To `COc1cc2c(cc1OC)C(=O)N1[C@H]3c4ccccc4OC[C@@H]3[C@H](c3ccccc3)[C@]1(C)C(=O)N2` belongs 196 nM. To `COc1ccccc1/C=C/C(=O)/C=C/c1ccccc1O` belongs 266 nM; to `Cc1ccc(S(=O)(=O)N(C)C[C@H]2Oc3ccc(NC(=O)C4CCCCC4)cc3C(=O)N([C@H](C)CO)C[C@H]2C)cc1`, 555 nM; to `C(=C\c1nccc2c1[nH]c1ccccc12)/c1ccccc1`, 7.01 nM. As for `Cc1nn(-c2ccccc2)c(Cl)c1/C=N/Nc1nc2ccccc2[nH]1`, the AC35 was 23.5 nM. To `Cc1ccc(NC(=O)c2ccc(Cl)cc2[N+](=O)[O-])nc1` belongs 2420 nM; to `O=C(Nc1ccccc1O)c1ccc(NC(=O)C2CC2)cc1`, 432 nM; to `COc1cccc(C2=NOC(C(=O)NCc3ccc(F)cc3)C2)c1` (stereo not given), 4170 nM. As to `C=C(C)Cn1c2ccc(NC(=O)CCc3cccc(Cl)c3)cc2c(=O)n1C`, the AC35 was 4260 nM. With `COc1cccc(N2CCN(C(=O)c3ccc(CS(=O)c4ccc(Cl)cc4)o3)CC2)c1` (stereo not given), the AC35 is 773 nM.

As for `COc1ccc(OC)c(-c2cc(-c3cccnc3)nc(N)c2C#N)c1`, the AC35 was 227 nM.

Consider `Cc1ccc2nc(-c3ccccc3)cc(C(=O)N3CC(C)OC(C)C3)c2c1` (stereo not given), for which the AC35 was 1920 nM. With `Cc1ccc(NC2=NC3(CCCC3)N=C(N)N2)c(C)c1`, the AC35 was 7540 nM.

Regarding `CN(C)CCNc1cccc2sc3ccc(O)cc3c(=O)c12`, the AC35 is 1980 nM.

For the molecule `Clc1ccc(CSc2cnnc3ccccc23)cc1Cl`, the AC35 is 2090 nM. To `O=C(N/N=C/c1ccc2c(c1)OCO2)C1COc2ccccc2O1` (stereo not given) belongs 187 nM; to `COc1ccc(NC(=O)c2cc(S(=O)(=O)N(C)C)ccc2N2CCCC2)cc1Cl`, > 19500 nM (inactive); to `CNC(=O)c1cccn(Cc2ccc(C(F)(F)F)cc2)c1=O`, 1240 nM.

Regarding `CSCCOC(=O)c1[nH]c2c(c1C)C(=O)CC(c1ccco1)C2` (stereo not given), the AC35 was 627 nM.

In the case of `CCOc1ccc(N2C(=O)Nc3ccccc3C2(O)C(=O)N2CCN(c3ccccn3)CC2)cc1` (stereo not given), the AC35 is 1200 nM.

As to `COC(=O)c1c(C)[nH]c(C(=O)/C=C/c2cccc(Cl)c2)c1C`, the AC35 is 839 nM. To `Cc1cccc([C@@H]2[C@@H]3C(=O)N(Cc4ccccc4)C(=O)[C@@H]3[C@]3(Cc4ccccc4)C(=O)N(c4cccc(F)c4)C(=O)N23)c1` belongs 4360 nM; to `O=C(NC1CCCC(C(F)(F)F)C1)c1ccc([N+](=O)[O-])o1` (stereo not given), 3970 nM. Next, `COc1cccc(C(NC(C)=O)c2nc(-c3ccc(F)cc3OC)cs2)c1` (stereo not given): 63.3 nM.
